Values after ≈ are worked out from the molar mass of the structure shown.
Columns and labels:
[1] = biological target: T1, Human Leukocyte Elastase (HLE) (Homo sapiens, UniProt P08246); assay: HLE protease inhibition assay; format: biochemical
T1 construct: purchased Athens Research and Technology 16-15-051200
T1 sequence (P08246 30-247 limits assumed): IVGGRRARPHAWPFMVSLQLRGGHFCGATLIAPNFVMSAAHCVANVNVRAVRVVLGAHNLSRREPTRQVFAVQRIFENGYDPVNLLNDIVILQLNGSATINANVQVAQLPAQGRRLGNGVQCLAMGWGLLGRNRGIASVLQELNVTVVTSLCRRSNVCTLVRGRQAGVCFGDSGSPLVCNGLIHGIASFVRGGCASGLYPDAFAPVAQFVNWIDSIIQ
Experimental: Elastase was purchased from Athens Research and Technology (Cat No. 16-15-051200). Elastase (100 µg) was dissolved in Tris buffer (100 mM Tris, 20 mM CaCl2, pH 8.1, 3.14 mL), giving a concentration of 1.117 µM, and 25 µL was added to each well containing the respective inhibitor. The plate was incubated at 37 °C for 15 min.
N-Suc-AAA-pNA (Sigma Aldrich, Bayswater, Australia, S4760, 100 µL, 1 mg/mL, […]) was added to each well, and the absorbance was monitored every six minutes at 405 nm. The rate of change of absorbance was used as a comparison to controls to determine the % inhibition of protein in Microsoft Excel^TM (v2402), and these values were exported to GraphPad Prism (v8.0.1) for IC50 calculation.

[2] = test system: C. trachomatis; assay: Chlamydia trachomatis growth inhibition assay in HEp-2 host cells; format: cell-based; conditions: for statistical significance of anti-chlamydial activity: relative to solvent controls
Experimental: The workflow for the evaluation of chlamydial growth inhibition is described in the supplementary information (Figure S6). Briefly, HEp-2 cells were seeded in a 96-well plate and grown for 24 h; they were then infected with a fixed quantity of C. trachomatis. The infection was propagated for 4 h, and then a mixture of test compound and cycloheximide was added and the plate was incubated for a further 26 h (30 h post infection). The cells were fixed with methanol and then stained with fluorescent antibodies to visualize chlamydial inclusions, and the growth was measured using inclusion counts relative to vehicle controls.
HEp-2 cells were grown until confluent in a T-75 flask with DMEM (containing 10% FCS, gentamycin (0.05 mg/mL), streptomycin (0.1 mg/mL) and glutamine (Sigma-Aldrich Cat No. G7513, 4 mM); they were then harvested with trypsin, and the cell density was determined with a haemocytometer. Cells were diluted to 1 × 10^5 cells/mL, and 200 µL was dispensed to each well in a 96-well plate and then incubated for 24 h at 5% CO2 at 37 °C.
The supernatant was removed, and 100 µL of the respective chlamydia species in media (100,000 IFU/mL) was added, giving an MOI of 0.5. The plate was sealed and centrifuged at 500× g/28 °C for 30 min and then incubated for a further 3.5 h at 37 °C with 5% CO2. The supernatant was removed, and 100 µL of cycloheximide in DMEM (1 µg/mL) was added in addition to 100 µL of drug stock solution to each respective well with DMSO and media negative controls and also azithromycin positive control. The plate was incubated for a further 26 h.
The supernatant was removed, and wells were washed with PBS (2 × 150 µL) and then fixed in methanol for eight minutes. The methanol was removed and washed with additional PBS (2 × 150 µL) and stored at 4 °C with 100 µL PBS per well and then stained and analyzed using fluorescence microscopy, which is outlined below.
Cells in fixed plates were permeabilized with 0.5% Triton X-100 in PBS for 15 min and then blocked with 1% BSA in PBS for 45 min. Anti-HtrA polyclonal antibody (sera) (1:600) (in-house), anti-mouse tubulin (Sigma-Aldrich Cat no. T-5168, 1:3000) and DAPI (125 ng/mL) in PBS were added to each well (70 µL) and then gently shaken at room temperature while shielding it from light for 45 min. The primary antibodies were removed, and the wells were washed with PBS (4 × 150 µL). Secondary antibodies (goat anti-rabbit Alexafluor 488, Thermo Fisher Cat No. A-11008 and goat anti-mouse Alexafluor 568 (Thermo Fisher Cat No. A-11004)) in PBS (70 µL, 1:600 respectively) were added and the wells were gently shaken at room temperature while shielding them from light for 45 min. The antibodies were removed, and the wells were washed with PBS (5 × 150 µL); cells were then stored with PBS (100 µL per well) at 4 °C pending analysis.
Plates were analyzed on an INcell Analyzer 2200 (Cytiva Life Sciences, Marlborough, MA, USA) using both laser autofocus (10%) and software autofocus modes, with ten random images per well covering a minimum of 80% of the well at 10x magnification. Non-morphologically affected inclusions were counted using a macro in ImageJ (v1.54f), and MIC was defined as being one two-fold dilution more concentrated than MICTP (where MICTP is defined as the lowest concentration to produce ≥90% morphologically abnormal inclusions) relative to solvent controls.

[3] = 62.5 µM, 30 h post infection, HEp-2 host cells

CCC(C)Oc1oc(=O)c2ccccc2c1Cl (racemic) [Compound 2g, (±)-3-sec-Butoxy-4-chloroisocoumarin]
IC50 ([1]; Table S1, variable slope four parameter fit, read-out: IC50 against HLE): 1810 nM | Relative Potency against HLE ([1]; [IC50 of JO146]/[IC50 test compound]): 0.451 | reduction of chlamydial growth [2, 3]: 49%

CCC(C)Oc1oc(=O)c2cc(N)ccc2c1Cl (racemic) [Compound 6a, (±)-7-Amino-4-chloro-3-sec-butoxyisocoumarin]
chlamydial inclusions affected [2, 3]: ≥ 90% | statistical significance of anti-chlamydial activity ([2]; 62.5 µM): statistically significant anti-chlamydial activity | inhibition of C. trachomatis growth versus 90% threshold ([2]; any concentration tested, 30 h post infection, dose-response): did not consistently show inhibition greater than the 90% threshold

CCC(C)Oc1oc(=O)c2cc(N(C)C)ccc2c1Cl (racemic) [Compound 6b, (±)-7-(Dimethylamino)-3-sec-butoxy-4-chloroisocoumarin]
chlamydial inclusions affected [2, 3]: ≥ 90% | statistical significance of anti-chlamydial activity ([2]; 62.5 µM): statistically significant anti-chlamydial activity | inhibition at 31.25 µM ([2]; Chlamydia trachomatis, HEp-2, concentrations ≥ 31.25 µM, 30 h post infection, dose-response): > 90% | MIC ([2]; Chlamydia trachomatis, MIC defined as twice the MICTP (>90% altered chlamydial morphology), read-out: MIC (minimum inhibitory concentration) against C. trachomatis): 62.5 µM (≈ 18.5 µg/mL)

CCC(C)Oc1oc(=O)c2cc(NC(C)=O)ccc2c1Cl (racemic) [Compound 6c, (±)-N-(4-Chloro-1-oxo-3-sec-butoxy-isochromen-7-yl)acetamide]
anti-chlamydial activity against C. trachomatis [2, 3]: did not significantly affect the efficacy of 2g

CCC(C)Oc1oc(=O)c2cc(NC(=O)C(F)(F)F)ccc2c1Cl (racemic) [Compound 6d, (±)-N-(4-chloro-1-oxo-3-sec-butoxy-isochromen-7-yl)-2,2,2-trifluoroacetamide]
anti-chlamydial activity against C. trachomatis [2, 3]: comparable efficacy to the methoxy (6h) analogue | statistical significance of anti-chlamydial activity ([2]; 62.5 µM): statistically significant anti-chlamydial activity | melting point: 189 to 190 °C

CCC(C)Oc1oc(=O)c2cc(I)ccc2c1Cl (racemic) [Compound 6e, (±)-3-sec-Butoxy-4-chloro-7-iodoisocoumarin]
anti-chlamydial activity against C. trachomatis [2, 3]: did not significantly affect the efficacy of 2g | statistical significance of anti-chlamydial activity ([2]; 62.5 µM): statistically significant anti-chlamydial activity

CCC(C)Oc1oc(=O)c2cc(OC)ccc2c1Cl (racemic) [Compound 6h, (±)-7-Methoxy-3-sec-butoxy-4-chloroisocoumarin]
statistical significance of anti-chlamydial activity ([2]; 62.5 µM): statistically significant anti-chlamydial activity
